Experiment [1] addresses BACE1 enzyme (Homo sapiens, UniProt P56817). Description: BACE1 enzyme inhibition, Ki from kinetic data under tight-binding conditions. The experiment is classed as biochemical. The following applies: for Ki: Ki (nM) BACE1, Table 3; for selectivity for BACE1 against BACE2: ratio of Ki values.
Experiment [2] addresses T1, BACE2 enzyme (Homo sapiens, UniProt Q9Y5Z0).
T1 sequence (Q9Y5Z0 63-518): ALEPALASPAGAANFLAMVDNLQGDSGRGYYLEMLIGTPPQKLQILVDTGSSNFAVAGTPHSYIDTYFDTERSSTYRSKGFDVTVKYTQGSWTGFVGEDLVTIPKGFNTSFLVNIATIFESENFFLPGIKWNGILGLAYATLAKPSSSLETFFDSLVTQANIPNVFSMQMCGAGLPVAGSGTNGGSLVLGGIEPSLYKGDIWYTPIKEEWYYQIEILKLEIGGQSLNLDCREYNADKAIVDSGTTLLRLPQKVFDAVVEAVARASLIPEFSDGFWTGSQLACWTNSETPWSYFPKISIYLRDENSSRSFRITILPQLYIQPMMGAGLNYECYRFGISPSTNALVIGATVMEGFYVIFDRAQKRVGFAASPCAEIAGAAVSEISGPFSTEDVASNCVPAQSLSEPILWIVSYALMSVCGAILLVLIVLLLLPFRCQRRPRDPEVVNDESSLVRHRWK
Put plainly: BACE2 enzyme inhibition, Ki from kinetic data under tight-binding conditions. The experiment is classed as biochemical. The following applies: Ki (nM) BACE2, Table 3.

BACE1 enzyme, sequence (P56817 46-501): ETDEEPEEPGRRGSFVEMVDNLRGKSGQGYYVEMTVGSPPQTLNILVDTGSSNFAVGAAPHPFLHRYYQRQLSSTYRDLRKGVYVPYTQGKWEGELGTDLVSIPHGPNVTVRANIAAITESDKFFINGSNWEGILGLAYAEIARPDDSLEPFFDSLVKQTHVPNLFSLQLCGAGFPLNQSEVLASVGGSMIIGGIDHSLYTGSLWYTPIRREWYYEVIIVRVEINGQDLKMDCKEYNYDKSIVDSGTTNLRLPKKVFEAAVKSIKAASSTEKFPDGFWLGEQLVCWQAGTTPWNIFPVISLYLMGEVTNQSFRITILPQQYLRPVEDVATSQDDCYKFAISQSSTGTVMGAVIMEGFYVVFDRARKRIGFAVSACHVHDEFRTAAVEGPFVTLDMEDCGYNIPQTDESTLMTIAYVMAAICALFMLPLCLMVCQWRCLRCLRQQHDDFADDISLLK

On to `COc1cccc(CNC[C@@H](O)[C@H](Cc2ccccc2)NC(=O)c2cccc(C(=O)N(C)Cc3nc(C)co3)c2)c1` [inhibitor 3m, N^1-((2S,3R)-3-Hydroxy-4-((3-methoxybenzyl)amino)-1-phenylbutan-2-yl)-N^3-methyl-N^3-((4-methyloxazol-2-yl)methyl)isophthalamide], for which the results for the Ki in experiment [1] and in experiment [2] were 68.8 nM and 7330 nM, respectively. In experiment [1], the “selectivity for BACE1 against BACE2” value is reported as “over 100 fold”.
Consider `COc1cccc(CNC[C@@H](O)[C@H](Cc2ccccc2)NC(=O)c2cc(C)cc(C(=O)N(C)Cc3nc(C)co3)c2)c1` [inhibitor 3n, N^1-((2S,3R)-3-Hydroxy-4-((3-methoxybenzyl)amino)-1-phenylbutan-2-yl)-N^3,5-dimethyl-N^3-((4-methyloxazol-2-yl)methyl)isophthalamide], for which, in experiment [1], the Ki was determined as 25.4 nM and the “selectivity for BACE1 against BACE2” value is reported as greater than 75 fold. In experiment [2], this compound displayed a Ki of 1920 nM.

For orientation: Ki means a dissociation constant, usually derived from enzyme kinetics or from competition with a known ligand.

(Values after article PMC6637425 (ChemMedChem, 2019).)
